Source: patent US7115629B2, “Carbamates derived from arylalkylamines” (Laboratorios S.A.L.V.A.T., S.A., priority 2000, dated 2006)
Counter-ions that a name gives are not always drawn. Like-named read-outs stand apart in the source and are kept apart here.

Key:
human M3 receptors = molecular target: T1, human M3 receptors (Homo sapiens, UniProt P20309); test: Binding test to cloned human M3 muscarinic receptor ([3H]-NMS displacement, CHO-K1 membranes)
T1 construct: purchased Receptor Biology; host or cells: CHO-K1 cells transfected with the human receptor (membranes)
T1 sequence (P20309 whole entry): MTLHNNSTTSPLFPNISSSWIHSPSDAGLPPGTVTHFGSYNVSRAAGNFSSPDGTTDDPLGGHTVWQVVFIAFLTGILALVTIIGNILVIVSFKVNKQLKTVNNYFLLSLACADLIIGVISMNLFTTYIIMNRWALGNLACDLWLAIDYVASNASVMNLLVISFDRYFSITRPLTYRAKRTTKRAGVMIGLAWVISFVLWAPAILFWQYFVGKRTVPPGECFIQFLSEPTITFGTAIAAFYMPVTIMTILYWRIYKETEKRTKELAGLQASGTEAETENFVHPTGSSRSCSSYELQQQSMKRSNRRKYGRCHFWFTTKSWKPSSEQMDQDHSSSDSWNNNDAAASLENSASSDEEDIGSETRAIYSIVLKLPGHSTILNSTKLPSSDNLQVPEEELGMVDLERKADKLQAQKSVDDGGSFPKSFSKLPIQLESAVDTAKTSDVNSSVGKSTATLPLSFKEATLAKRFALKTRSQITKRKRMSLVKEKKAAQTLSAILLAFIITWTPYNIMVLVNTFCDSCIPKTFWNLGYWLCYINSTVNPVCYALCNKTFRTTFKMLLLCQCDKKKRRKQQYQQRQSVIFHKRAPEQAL
Procedure: (§1) Membranes from CHO—K1 cells transfected with human M2 or M3 receptors (Receptor Biology) were used. The summarised experimental procedure for both receptors was the following: membranes (15–20 μg) were incubated with [^3H]-NMS (0.3–0.5 nM) for 60 min at 25° C., in presence or absence of the antagonists. Incubation was carried out in 96 wells polystyrene microplates in a total incubation volume of 0.2 mL of PBS pH 7.4. Non specific binding was determined in parallel assays in presence of atropine (5 μM). Samples were filtered through type GF/C glass fibre, preincubated with PEI 0.3%. Filters were washed 3–4 times with 50 mM Tris-HCl, 0.9% NaCl, pH 7.4 at 4° C., and dried at 50° C. for 45 min. Filter bound radioactivity was quantified by liquid scintillation counting.
(§2) For the calculation of the inhibition constant (Ki), displacement curves were analysed by non-linear regression (GraphPad Prism). Dissociation constant (KD) of [^3H]-NMS for each receptor was obtained through the saturation curves obtained in the same conditions as the experiments carried out with the antagonists.

human M2 receptors = molecular target: T2, human M2 receptors (Homo sapiens, UniProt P08172); test: Binding test to cloned human M2 muscarinic receptor ([3H]-NMS displacement, CHO-K1 membranes), reported as M2/M3 ratio; conditions: value greater than 1 indicates selectivity for the M3 receptor
T2 construct: purchased Receptor Biology; host or cells: CHO-K1 cells transfected with the human receptor (membranes)
T2 sequence (P08172 1-466): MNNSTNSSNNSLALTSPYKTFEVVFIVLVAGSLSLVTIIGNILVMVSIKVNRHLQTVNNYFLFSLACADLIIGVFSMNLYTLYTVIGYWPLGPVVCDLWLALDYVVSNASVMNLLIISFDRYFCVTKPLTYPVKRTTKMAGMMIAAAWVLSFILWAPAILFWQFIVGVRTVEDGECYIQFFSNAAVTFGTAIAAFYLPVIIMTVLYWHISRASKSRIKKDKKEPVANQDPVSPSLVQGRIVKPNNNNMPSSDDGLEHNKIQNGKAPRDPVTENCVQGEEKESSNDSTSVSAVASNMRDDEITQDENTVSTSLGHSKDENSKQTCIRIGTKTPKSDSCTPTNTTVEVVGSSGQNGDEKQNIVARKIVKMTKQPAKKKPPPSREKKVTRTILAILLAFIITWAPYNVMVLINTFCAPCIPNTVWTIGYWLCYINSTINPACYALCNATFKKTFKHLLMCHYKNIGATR
Procedure: as §1, §2

[1] = membranes of CHO-K1 cells transfected with human M3, [3H]-NMS, mean of two independent experiments in duplicate, read-out: M3 (human M3 antagonist activity, binding affinity constant Ki)

Compound | Ki (human M3 receptors) [nM] | M2/M3 (ratio between M2 and M3 receptor affinities) (human M2 receptors) | Ki (human M3 receptors; [1]) [nM]
O=C(OC1CN2CCC1CC2)N(Cc1ccccc1)c1ccccc1 (stereo not shown) [Example 1, 3-quinuclidyl N-benzyl-N-phenylcarbamate, hydrochloride] | 0.45 | 10 | –
O=C(O[C@H]1CN2CCC1CC2)N(Cc1ccccc1)c1ccccc1 [Example 2, (R)-3-quinuclidyl N-benzyl-N-phenylcarbamate, hydrochloride] | 0.31 | 5 | –
C[N+]12CCC(CC1)C(OC(=O)N(Cc1ccccc1)c1ccccc1)C2.[I-] [Example 3, (R)-3-N-benzyl-N-phenylcarbamoyloxy)-1-methylquinuclidinium iodide] | – | 7 | 2.6
O=C(OC1CN2CCC1CC2)N(Cc1ccccc1)c1ccccc1F (stereo not shown) [Example 5] | – | 47 | 0.047
O=C(OC1CN2CCC1CC2)N(Cc1ccccc1)c1cccc(Cl)c1 (stereo not shown) [Example 6] | – | 87 | 0.21
O=C(OC1CN2CCC1CC2)N(Cc1ccccc1)c1cccc(Br)c1 (stereo not shown) [Example 7] | – | 19 | 2.05
O=C(O[C@H]1CN2CCC1CC2)N(Cc1ccccc1)c1c(F)cccc1F [Example 8] | – | 11 | 0.2
O=C(OC1CN2CCC1CC2)N(Cc1ccccc1)c1ccc(F)c(F)c1 (stereo not shown) [Example 9] | – | 9 | 19.6
Cc1cccc(N(Cc2ccccc2)C(=O)OC2CN3CCC2CC3)c1 (stereo not shown) [Example 10] | – | 44 | 0.14
Cc1cccc(C)c1N(Cc1ccccc1)C(=O)OC1CN2CCC1CC2 (stereo not shown) [Example 11] | – | 11 | 6.12
O=C(OC1CN2CCC1CC2)N(Cc1ccccc1)c1ccc2c(c1)CCC2 (stereo not shown) [Example 12] | – | 6 | 30.7
N#Cc1ccc(N(Cc2ccccc2)C(=O)OC2CN3CCC2CC3)cc1 (stereo not shown) [Example 13] | – | 17 | 4.31
O=C(OC1CN2CCC1CC2)N(Cc1ccccc1)c1ccccc1O (stereo not shown) [Example 14] | – | 21 | 0.31
Cc1ccc(F)c(N(Cc2ccccc2F)C(=O)OC2CN3CCC2CC3)c1 (stereo not shown) [Example 15] | – | 21 | 0.53
O=C(OC1CN2CCC1CC2)N(Cc1ccccc1Br)c1ccccc1 (stereo not shown) [Example 16] | – | 13 | 4.23
O=C(OC1CN2CCC1CC2)N(Cc1cccc(F)c1)c1cccc(F)c1 (stereo not shown) [Example 17] | – | 196 | 0.054
O=C(OC1CN2CCC1CC2)N(Cc1ccc(F)cc1)c1cccc(F)c1F (stereo not shown) [Example 18] | – | 154 | 0.92
Cc1ccc(F)c(N(Cc2ccc(Cl)cc2)C(=O)OC2CN3CCC2CC3)c1 (stereo not shown) [Example 19] | – | 23 | 1.2
O=C(OC1CN2CCC1CC2)N(Cc1cccc(F)c1F)c1cccc(Cl)c1 (stereo not shown) [Example 20] | – | 149 | 0.33
O=C(OC1CN2CCC1CC2)N(Cc1ccc(Cl)cc1Cl)c1ccc(F)cc1F (stereo not shown) [Example 21] | – | 5 | 105
Cc1cccc(N(Cc2ccc(F)cc2F)C(=O)OC2CN3CCC2CC3)c1 (stereo not shown) [Example 22] | – | 21 | 0.51
COc1ccc(CN(C(=O)OC2CN3CCC2CC3)c2cccc(Cl)c2)c(F)c1 (stereo not shown) [Example 23] | – | 118 | 0.73
O=C(OC1CN2CCC1CC2)N(Cc1cc(F)ccc1F)c1ccccc1Cl (stereo not shown) [Example 24] | – | 33 | 0.48
COc1ccc(F)c(CN(C(=O)OC2CN3CCC2CC3)c2ccccc2)c1 (stereo not shown) [Example 25] | – | 19 | 1.7
O=C(OC1CN2CCC1CC2)N(Cc1ccc(F)c(F)c1)c1ccccc1 (stereo not shown) [Example 26] | – | 50 | 0.1
O=C(OC1CN2CCC1CC2)N(Cc1ccc(Cl)c(F)c1)c1ccccc1F (stereo not shown) [Example 27] | – | 92 | 0.37
O=C(OC1CN2CCC1CC2)N(Cc1ccc(F)c(Cl)c1)c1ccccc1 (stereo not shown) [Example 28] | – | 35 | 1.5

Compound | Ki (human M3 receptors) [nM] | M2/M3 (ratio between M2 and M3 receptor affinities) (human M2 receptors) | Ki (human M3 receptors; [1]) [nM]
O=C(OC1CN2CCC1CC2)N(Cc1ccc(Cl)c(Cl)c1)c1ccccc1 (stereo not shown) [Example 29] | – | 50 | 1.4
Cc1cccc(N(Cc2cc(F)cc(F)c2)C(=O)OC2CN3CCC2CC3)c1 (stereo not shown) [Example 30] | – | 74 | 0.09
Cc1cccc(N(Cc2ccc(C)c(F)c2)C(=O)OC2CN3CCC2CC3)c1 (stereo not shown) [Example 31] | – | 52 | 0.32
COc1ccc(CN(C(=O)OC2CN3CCC2CC3)c2ccccc2F)cc1F (stereo not shown) [Example 32] | – | 19 | 3.3
O=C(OC1CN2CCC1CC2)N(Cc1ccc(F)c(F)c1F)c1cccc(Cl)c1 (stereo not shown) [Example 33] | – | 142 | 0.4
Cc1cccc(N(Cc2cc(F)cc(F)c2F)C(=O)OC2CN3CCC2CC3)c1 (stereo not shown) [Example 34] | – | 90 | 0.3
Cc1cccc(N(Cc2cc(F)c(F)cc2F)C(=O)OC2CN3CCC2CC3)c1 (stereo not shown) [Example 35] | – | 839 | 0.031
O=C(OC1CN2CCC1CC2)N(Cc1cc(F)c(F)c(F)c1)c1cccc(F)c1 (stereo not shown) [Example 36] | – | 545 | 0.04
O=C(OC1CN2CCC1CC2)N(Cc1cc(F)c(F)c(F)c1)c1ccc(F)cc1 (stereo not shown) [Example 37] | – | 134 | 0.66
Cc1cccc(N(Cc2ccccc2C)C(=O)OC2CN3CCC2CC3)c1 (stereo not shown) [Example 38] | – | 40 | 0.23
O=C(OC1CN2CCC1CC2)N(Cc1ccc(C(F)(F)F)cc1)c1ccccc1 (stereo not shown) [Example 39] | – | 84 | 0.32
CCc1ccc(CN(C(=O)OC2CN3CCC2CC3)c2ccccc2)cc1 (stereo not shown) [Example 40] | – | 92 | 0.066
CC(C)(C)c1ccc(CN(C(=O)OC2CN3CCC2CC3)c2ccccc2)cc1 (stereo not shown) [Example 41] | – | 271 | 0.11
Cc1ccccc1N(Cc1ccc(CO)cc1)C(=O)OC1CN2CCC1CC2 (stereo not shown) [Example 42] | – | 38 | 1.17
N#Cc1ccc(CN(C(=O)OC2CN3CCC2CC3)c2ccccc2)cc1 (stereo not shown) [Example 43] | – | 31 | 0.9
NC(=O)c1ccc(CN(C(=O)OC2CN3CCC2CC3)c2ccccc2)cc1 (stereo not shown) [Example 44] | – | 6 | 7.7
O=C(OC1CN2CCC1CC2)N(Cc1ccccc1O)c1ccccc1F (stereo not shown) [Example 45] | – | 37 | 0.18
Cc1cccc(N(Cc2cccc(O)c2)C(=O)OC2CN3CCC2CC3)c1 (stereo not shown) [Example 46] | – | 33 | 0.15
O=C(OC1CN2CCC1CC2)N(Cc1ccc(O)cc1)c1ccccc1 (stereo not shown) [Example 47] | – | 33 | 5.7
O=C(OC1CN2CCC1CC2)N(Cc1cccc(OCc2ccccc2)c1)c1cccc(Cl)c1 (stereo not shown) [Example 48] | – | 24 | 0.43
O=C(OC1CN2CCC1CC2)N(Cc1cccc(OC(F)(F)F)c1)c1ccccc1 (stereo not shown) [Example 49] | – | 7 | 10.1
CC(C)Oc1ccc(CN(C(=O)OC2CN3CCC2CC3)c2ccccc2)cc1 (stereo not shown) [Example 50] | – | 26 | 0.84
COc1cc(CN(C(=O)OC2CN3CCC2CC3)c2cccc(Cl)c2)ccc1OCc1ccccc1 (stereo not shown) [Example 51] | – | 3 | 51.9
O=C(OC1CN2CCC1CC2)N(Cc1ccc2c(c1)OCO2)c1ccccc1 (stereo not shown) [Example 52] | – | 25 | 1.2
Cc1cccc(N(Cc2ccc3c(c2)OCCO3)C(=O)OC2CN3CCC2CC3)c1 (stereo not shown) [Example 53] | – | 26 | 1.25
O=C(OC1CN2CCC1CC2)N(CC1CC1)c1ccccc1 (stereo not shown) [Example 54] | – | 32 | 0.6
